Results: PMC6009888, “Design, synthesis, and pharmacological evaluation of 2-amino-5-nitrothiazole derived semicarbazones as dual inhibitors of monoamine oxidase and cholinesterase: effect of the size of aryl binding site” (Journal of Enzyme Inhibition and Medicinal Chemistry, 2017)

Target: T1, rat brain AChE (Rattus norvegicus, UniProt P37136)
T1 construct: the resulting clear supernatants obtained were used as enzyme sources; from tissue; host or cells: rat brain cortex homogenate, 10,000 g supernatant
T1 sequence (P37136 32-614): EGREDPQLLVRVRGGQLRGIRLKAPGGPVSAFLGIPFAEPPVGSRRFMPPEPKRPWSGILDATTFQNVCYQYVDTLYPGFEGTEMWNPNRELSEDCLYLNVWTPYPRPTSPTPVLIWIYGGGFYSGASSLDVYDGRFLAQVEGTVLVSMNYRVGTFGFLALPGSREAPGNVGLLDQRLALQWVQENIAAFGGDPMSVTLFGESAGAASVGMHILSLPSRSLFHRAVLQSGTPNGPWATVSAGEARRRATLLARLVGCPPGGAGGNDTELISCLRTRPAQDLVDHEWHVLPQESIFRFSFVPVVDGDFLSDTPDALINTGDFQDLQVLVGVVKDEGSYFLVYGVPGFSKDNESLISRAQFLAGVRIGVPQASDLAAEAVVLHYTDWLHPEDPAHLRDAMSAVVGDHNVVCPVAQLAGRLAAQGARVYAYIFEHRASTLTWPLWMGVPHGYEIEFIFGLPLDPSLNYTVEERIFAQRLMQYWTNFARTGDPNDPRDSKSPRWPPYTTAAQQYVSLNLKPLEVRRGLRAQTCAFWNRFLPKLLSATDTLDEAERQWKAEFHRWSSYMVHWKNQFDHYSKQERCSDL
Test: biochemical
Assay type: biochemical
Conditions: rat brain AChE, ACTI substrate, mean ± SEM, triplicate; read-out: AChE In vitro IC50 (µM) ± SEM
Description: Rat brain was used as a source of AChE enzyme. Rats were separately decapitated, the brain cortices quickly removed, weighed and homogenised in cold 10 mM Tris-HCl buffer, pH 7.2, containing 160 mM sucrose. The homogenates were centrifuged at 10,000 g for 10 min at 4 °C, and the resulting clear supernatants obtained were used as enzyme sources that were divided into aliquots and stored at −20 °C.
(§1) About 30 µl of enzyme sample (AChE) was added to 60 µl of 20 mM sodium phosphate buffer (pH 7.4) and were incubated in the presence of 30 µl of 10 mM DTNB solution with different concentrations of the test compounds. The enzyme reaction was initiated by the addition of 30 µl of 0.8 mM ACTI. The mixtures were incubated for 15 min at 25 °C. […] Control experiments were carried out without inhibitor, and blanks were run without AChE enzyme. All the assays were performed in triplicate. IC50 values were determined using the GraphPad Prism 5.0 (San Diego, CA) and the results were expressed as mean ± SEM.
(§2) 0, 15, 30 and 60 min at 25 °C in sodium phosphate buffer (20 mM, pH 7.4) and DTNB solution (10 mM). […] The reaction was further incubated at 25 °C for a further 15 min and the residual enzyme activities were measured and the bar graphs were constructed. All measurements were carried out in triplicate and are expressed as mean ± SEM.
In the case of `O=C(NN=C(c1ccccc1)c1ccc(Cl)cc1)Nc1ncc([N+](=O)[O-])s1` [Compound 17, 1-((4-Chlorophenyl)(phenyl)methylene)-4-(5-nitrothiazol-2-yl)semicarbazide], the IC50 is reported as 11.5 ± 0.35 µM.

System: not listed separately
Test: physchem
Conditions: octanol/water
For `O=C(NN=C(c1ccccc1)c1ccc(Cl)cc1)Nc1ncc([N+](=O)[O-])s1` [Compound 17, 1-((4-Chlorophenyl)(phenyl)methylene)-4-(5-nitrothiazol-2-yl)semicarbazide], the logP was 3.6.

Target: T2, MAO-A (Rattus norvegicus, UniProt P21396)
T2 construct: employing crude rat brain mitochondrial suspension; from tissue; host or cells: brain mitochondria of adult Wistar rats
T2 sequence (P21396 1-526): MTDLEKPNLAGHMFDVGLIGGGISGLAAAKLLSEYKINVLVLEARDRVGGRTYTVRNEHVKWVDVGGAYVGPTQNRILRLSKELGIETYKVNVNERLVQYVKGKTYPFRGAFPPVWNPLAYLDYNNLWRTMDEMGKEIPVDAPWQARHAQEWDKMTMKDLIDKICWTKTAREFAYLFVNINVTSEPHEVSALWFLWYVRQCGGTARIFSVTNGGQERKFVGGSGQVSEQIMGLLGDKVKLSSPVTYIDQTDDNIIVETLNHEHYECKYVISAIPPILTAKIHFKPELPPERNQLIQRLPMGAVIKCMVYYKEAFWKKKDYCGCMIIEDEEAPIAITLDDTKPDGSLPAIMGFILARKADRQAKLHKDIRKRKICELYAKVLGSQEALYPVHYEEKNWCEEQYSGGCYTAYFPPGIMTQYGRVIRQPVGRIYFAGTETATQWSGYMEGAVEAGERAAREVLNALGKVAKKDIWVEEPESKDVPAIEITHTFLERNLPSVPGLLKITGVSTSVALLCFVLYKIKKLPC
Test: In vitro MAO-A inhibition assay (rat brain mitochondria, serotonin substrate)
Assay type: biochemical
Conditions: rat brain mitochondria, serotonin substrate, mean ± SEM, triplicate; read-out: MAO-A In vitro IC50 (µM) ± SEM
Description: (§3) Rat brain mitochondria were used as a source of MAO isoforms. All operations were carried out at 4 °C[50]. Male and female adult Wistar rats weighing 200–220 g were decapitated. All brains were rapidly removed and homogenised with a Potter–Elvehjem homogeniser in cold 0.32 M sucrose and 50 mM Tris-HCl, pH 8.2 (10:1, v/w). The homogenate was centrifuged twice at 1000 g for 5 min at 4 °C. The resulting supernatant was centrifuged at 20,000 g for 20 min. The mitochondrial pellet obtained was suspended in 100 mM sodium phosphate buffer, pH 7.4 (4:1, v/w), fractionated in plastic vials to 500 µl samples and stored at −80 °C. Before use, mitochondria were diluted with 100 mM sodium phosphate buffer to give a working solution of 0.80 mg of protein per millilitre.
(§4) The experiments were carried out under all the suitable laboratory conditions. […] An aliquot was made to contain mixture of 55 µl mitochondrial suspension (0.80 mg of protein/ml), 90 µl 50 mM Tris-HCl buffer, pH 8.2 and 30 µl solubilising solution (control or inhibitor solution at five different concentrations). The reaction was initiated by adding 25 µl of serotonin (4 mM, substrate for MAO-A) and 25 µl benzylamine (0.1 M, substrate for MAO-B) for the determination of MAO-A and MAO-B activity, respectively. The mixture was incubated at 37 °C for 30 min and the reaction was stopped by the addition of 50 µl of 1 N HCl. The absorbance associated with the production of 5-hydroxyindolacetic acid was measured at 280 nm for the estimation of MAO-A while for MAO-B estimation, the absorbance was measured at 250 nm due to the formation of benzaldehyde. All the assays were performed in triplicate. Control experiments were carried out without inhibitor and blanks were run without mitochondrial suspension.
(§5) Data are expressed as mean ± standard error mean (SEM) of experiments performed in triplicate.
as §2, with “37” for “25”, “Tris-HCl” for “sodium phosphate”, “(50” for “(20”, “8.2).” for “7.4) and DTNB solution (10 mM).”, “reactions were” for “reaction was”
Work on `O=C(NN=C(c1ccccc1)c1ccc(Cl)cc1)Nc1ncc([N+](=O)[O-])s1` [Compound 17, 1-((4-Chlorophenyl)(phenyl)methylene)-4-(5-nitrothiazol-2-yl)semicarbazide] yielded an IC50 of 4872 ± 5.81 µM.

Target: T3, equine serum BuChE (Equus caballus, UniProt P81908)
T3 construct: equine serum BuChE was used as enzyme; purchased Sigma-Aldrich; host or cells: equine serum
T3 sequence (P81908 whole entry): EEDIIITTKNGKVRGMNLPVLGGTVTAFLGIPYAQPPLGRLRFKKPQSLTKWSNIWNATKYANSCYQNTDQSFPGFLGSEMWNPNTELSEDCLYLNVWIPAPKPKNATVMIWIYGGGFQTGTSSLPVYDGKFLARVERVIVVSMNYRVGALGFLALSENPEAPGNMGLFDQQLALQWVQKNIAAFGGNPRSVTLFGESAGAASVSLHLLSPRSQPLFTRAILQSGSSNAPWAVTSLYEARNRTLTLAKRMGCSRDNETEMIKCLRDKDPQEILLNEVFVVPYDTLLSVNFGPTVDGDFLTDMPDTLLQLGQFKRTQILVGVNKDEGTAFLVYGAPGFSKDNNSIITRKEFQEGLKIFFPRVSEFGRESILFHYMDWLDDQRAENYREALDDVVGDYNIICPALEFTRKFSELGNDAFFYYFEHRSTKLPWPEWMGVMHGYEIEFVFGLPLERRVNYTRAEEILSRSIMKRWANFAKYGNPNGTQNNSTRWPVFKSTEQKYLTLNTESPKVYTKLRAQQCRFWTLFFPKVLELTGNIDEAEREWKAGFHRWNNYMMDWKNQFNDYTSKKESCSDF
Test: In vitro BuChE inhibition assay (Ellman's method, equine serum BuChE)
Assay type: biochemical
Conditions: Lineweaver–Burk plots, BuTI
Description: as §1
The BuChE activity was assayed as per the procedure followed for AChE activity except that equine serum BuChE was used as enzyme and butyrylthiocholine iodide (BuTI) was used as substrate.
as §2
For `O=C(NN=C(c1ccccc1)c1ccc(Cl)cc1)Nc1ncc([N+](=O)[O-])s1` [Compound 17, 1-((4-Chlorophenyl)(phenyl)methylene)-4-(5-nitrothiazol-2-yl)semicarbazide], the “Mode of BuChE inhibition” value was “mixed-type”.

Same assay, conditions: equine serum BuChE, BuTI substrate, mean ± SEM; read-out: BuChE In vitro IC50 (µM) ± SEM
For `O=C(NN=C(c1ccccc1)c1ccc(Cl)cc1)Nc1ncc([N+](=O)[O-])s1` [Compound 17, 1-((4-Chlorophenyl)(phenyl)methylene)-4-(5-nitrothiazol-2-yl)semicarbazide], the IC50 was 0.024 ± 0.002 µM.

Same assay, conditions: time-dependent inhibition, pre-incubation 0, 15, 30, 60 min
With `O=C(NN=C(c1ccccc1)c1ccc(Cl)cc1)Nc1ncc([N+](=O)[O-])s1` [Compound 17, 1-((4-Chlorophenyl)(phenyl)methylene)-4-(5-nitrothiazol-2-yl)semicarbazide] the “Reversibility of BuChE inhibition” value was “reversible”.

Target: T4, MAO-B (Rattus norvegicus, UniProt P19643)
T4 construct: employing crude rat brain mitochondrial suspension; from tissue; host or cells: brain mitochondria of adult Wistar rats
T4 sequence (P19643 1-520): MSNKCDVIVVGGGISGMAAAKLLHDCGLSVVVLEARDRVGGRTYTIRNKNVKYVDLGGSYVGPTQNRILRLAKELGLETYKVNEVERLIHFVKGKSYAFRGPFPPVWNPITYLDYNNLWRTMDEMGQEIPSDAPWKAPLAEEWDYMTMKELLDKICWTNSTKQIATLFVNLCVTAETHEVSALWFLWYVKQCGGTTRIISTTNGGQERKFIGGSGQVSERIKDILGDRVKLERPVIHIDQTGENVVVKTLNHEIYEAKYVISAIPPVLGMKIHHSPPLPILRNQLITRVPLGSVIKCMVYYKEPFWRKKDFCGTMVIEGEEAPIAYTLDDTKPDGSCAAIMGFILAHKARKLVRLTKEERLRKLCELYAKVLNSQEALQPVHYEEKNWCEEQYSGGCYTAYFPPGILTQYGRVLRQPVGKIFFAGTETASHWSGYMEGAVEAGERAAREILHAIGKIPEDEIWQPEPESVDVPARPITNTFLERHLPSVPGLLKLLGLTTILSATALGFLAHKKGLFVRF
Test: biochemical
Conditions: not given
Description: as §3, §4, §5
as §2, with “37” for “25”, “Tris-HCl” for “sodium phosphate”, “(50” for “(20”, “8.2).” for “7.4) and DTNB solution (10 mM).”, “reactions were” for “reaction was”
Work on `O=C(NN=C(c1ccccc1)c1ccc(Cl)cc1)Nc1ncc([N+](=O)[O-])s1` [Compound 17, 1-((4-Chlorophenyl)(phenyl)methylene)-4-(5-nitrothiazol-2-yl)semicarbazide] yielded an IC50 of 28.52 ± 0.079 µM.

Same assay, conditions: ratio of experimental IC50(MAO-A)/IC50(MAO-B)
In the case of `O=C(NN=C(c1ccccc1)c1ccc(Cl)cc1)Nc1ncc([N+](=O)[O-])s1` [Compound 17, 1-((4-Chlorophenyl)(phenyl)methylene)-4-(5-nitrothiazol-2-yl)semicarbazide], the “SI (selectivity index for MAO-B)” value is reported as 170.83.
